Reference: patent publication US12544370B2, “Methods for cancer therapy” (ASCENTAGE PHARMA (SUZHOU) CO., LTD., priority 2018, dated 2026)

Tested on: TKI-resistant patients with chronic phase (CP) or accelerated phase (AP) CML
Test: Phase I study, safety / treatment related adverse events (Example 1)
Details: Example 1
Excerpt: The eligible patients received treatments until disease progression or intolerable toxicities. The primary efficacy endpoint in the CML AP and CP patients, was complete hematological response (CHR) and major cytogenetic response (MCyR) respectively, MCyR includes partial cytogenetic response (PCyR) and complete cytogenetic response (CCyR). Blood samples were collected at various time points on Day 1-2 and Day 27-28 during cycle 1 for PK analyses.
• 3 to 6 subjects in each dose group (traditional 3+3 dose increasing method) • Up to 15 subjects in the MTD dose group (safety and PK characteristics) • Dose extension studies: • Up to 60 subjects (CP/CML-AP) • Extended dose selection is based on initial safety and efficacy Study Endpoints Primary Endpoint

[1] = treatment related AE, all patients

**Q.** `Cc1ccc(C(=O)Nc2ccc(CN3CCN(C)CC3)c(C(F)(F)F)c2)cc1C#Cc1cnc2[nH]ncc2c1` [compound of formula (I-A), 3-(2-(1H-pyrazolo[3,4-b]pyridin-5-yl)ethynyl)-4-methyl-N-(4-((4-methylpiperazin-1-yl)methyl)-3-(trifluoromethyl)phenyl)-benzamide] was tested. Which “Lipase increased leading to dose interruption/reduction, percent of cohort” value (40 mg (n = 37)) did it give?
**A.** (2.7%)

**Q.** What about the “Thrombocytopenia leading to dose interruption/reduction” value (40 mg (n = 37)) of the same compound?
**A.** 11 n

**Q.** And the “Thrombocytopenia leading to dose interruption/reduction, percent of cohort” value (40 mg (n = 37))?
**A.** (30%)

**Q.** And the “ALT increased leading to dose interruption/reduction” value (45 mg (n = 3))?
**A.** 0 n (%)

**Q.** What about the “AST increased leading to dose interruption/reduction” value (45 mg (n = 3)) of the same compound?
**A.** 0 n (%)

**Q.** What about the “Amylase increased leading to dose interruption/reduction” value (45 mg (n = 3)) of the same compound?
**A.** 0 n (%)

**Q.** And the “Anemia leading to dose interruption/reduction” value (45 mg (n = 3))?
**A.** 0 n (%)

**Q.** And the “Atrial fibrillation leading to dose interruption/reduction” value (45 mg (n = 3))?
**A.** 0 n (%)

**Q.** And the “Cardiomyopathy leading to dose interruption/reduction” value (45 mg (n = 3))?
**A.** 0 n (%)

**Q.** What about the “GGT increased leading to dose interruption/reduction” value (45 mg (n = 3)) of the same compound?
**A.** 0 n (%)

**Q.** What about the “Hyperkalemia leading to dose interruption/reduction” value (45 mg (n = 3)) of the same compound?
**A.** 0 n (%)

**Q.** And the “Hypertriglyceridemia leading to dose interruption/reduction” value (45 mg (n = 3))?
**A.** 0 n (%)

**Q.** And the “Hypocalcemia leading to dose interruption/reduction” value (45 mg (n = 3))?
**A.** 0 n (%)

**Q.** And the “Lacunar infarction leading to dose interruption/reduction” value (45 mg (n = 3))?
**A.** 0 n (%)

**Q.** What about the “Lipase increased leading to dose interruption/reduction” value (45 mg (n = 3)) of the same compound?
**A.** 0 n (%)

**Q.** And the “Thrombocytopenia leading to dose interruption/reduction” value (45 mg (n = 3))?
**A.** 2(67%) n (%)

**Q.** And the “ALT increased leading to dose interruption/reduction” value (50 mg (n = 24))?
**A.** 1 n

**Q.** And the “ALT increased leading to dose interruption/reduction, percent of cohort” value (50 mg (n = 24))?
**A.** (4.2%)

**Q.** What about the “AST increased leading to dose interruption/reduction” value (50 mg (n = 24)) of the same compound?
**A.** 1 n

**Q.** And the “AST increased leading to dose interruption/reduction, percent of cohort” value (50 mg (n = 24))?
**A.** (4.2%)

**Q.** And the “Amylase increased leading to dose interruption/reduction” value (50 mg (n = 24))?
**A.** 0 n (%)

**Q.** What about the “Anemia leading to dose interruption/reduction” value (50 mg (n = 24)) of the same compound?
**A.** 0 n (%)

**Q.** What about the “Atrial fibrillation leading to dose interruption/reduction” value (50 mg (n = 24)) of the same compound?
**A.** 0 n (%)

**Q.** What about the “Cardiomyopathy leading to dose interruption/reduction” value (50 mg (n = 24)) of the same compound?
**A.** 0 n (%)

**Q.** And the “GGT increased leading to dose interruption/reduction” value (50 mg (n = 24))?
**A.** 0 n (%)

**Q.** What about the “Hyperkalemia leading to dose interruption/reduction” value (50 mg (n = 24)) of the same compound?
**A.** 0 n (%)

**Q.** What about the “Hypertriglyceridemia leading to dose interruption/reduction” value (50 mg (n = 24)) of the same compound?
**A.** 0 n (%)

**Q.** What about the “Hypocalcemia leading to dose interruption/reduction” value (50 mg (n = 24)) of the same compound?
**A.** 1 n

**Q.** What about the “Hypocalcemia leading to dose interruption/reduction, percent of cohort” value (50 mg (n = 24)) of the same compound?
**A.** (4.2%)

**Q.** What about the “Lacunar infarction leading to dose interruption/reduction” value (50 mg (n = 24)) of the same compound?
**A.** 1 n

**Q.** And the “Lacunar infarction leading to dose interruption/reduction, percent of cohort” value (50 mg (n = 24))?
**A.** (4.2%)

**Q.** And the “Lipase increased leading to dose interruption/reduction” value (50 mg (n = 24))?
**A.** 1 n

**Q.** And the “Lipase increased leading to dose interruption/reduction, percent of cohort” value (50 mg (n = 24))?
**A.** (4.2%)

**Q.** And the “Thrombocytopenia leading to dose interruption/reduction” value (50 mg (n = 24))?
**A.** 8 n

**Q.** And the “Thrombocytopenia leading to dose interruption/reduction, percent of cohort” value (50 mg (n = 24))?
**A.** (33%)

**Q.** And the “ALT increased leading to dose interruption/reduction” value (60 mg (n = 3))?
**A.** 0 n (%)

**Q.** And the “AST increased leading to dose interruption/reduction” value (60 mg (n = 3))?
**A.** 0 n (%)

**Q.** And the “Amylase increased leading to dose interruption/reduction” value (60 mg (n = 3))?
**A.** 0 n (%)

**Q.** What about the “Anemia leading to dose interruption/reduction” value (60 mg (n = 3)) of the same compound?
**A.** 0 n (%)

**Q.** What about the “Atrial fibrillation leading to dose interruption/reduction” value (60 mg (n = 3)) of the same compound?
**A.** 0 n (%)

**Q.** What about the “Cardiomyopathy leading to dose interruption/reduction” value (60 mg (n = 3)) of the same compound?
**A.** 1(33%) n (%)

**Q.** And the “GGT increased leading to dose interruption/reduction” value (60 mg (n = 3))?
**A.** 0 n (%)

**Q.** What about the “Hyperkalemia leading to dose interruption/reduction” value (60 mg (n = 3)) of the same compound?
**A.** 0 n (%)

**Q.** And the “Hypertriglyceridemia leading to dose interruption/reduction” value (60 mg (n = 3))?
**A.** 0 n (%)

**Q.** What about the “Hypocalcemia leading to dose interruption/reduction” value (60 mg (n = 3)) of the same compound?
**A.** 0 n (%)

**Q.** What about the “Lacunar infarction leading to dose interruption/reduction” value (60 mg (n = 3)) of the same compound?
**A.** 0 n (%)

**Q.** What about the “Lipase increased leading to dose interruption/reduction” value (60 mg (n = 3)) of the same compound?
**A.** 0 n (%)

**Q.** What about the “Thrombocytopenia leading to dose interruption/reduction” value (60 mg (n = 3)) of the same compound?
**A.** 2(67%) n (%)

**Q.** And the “patients with dose-limiting toxicity (DLT)” value (60 mg cohort)?
**A.** Two out of 3

**Q.** What about the “patient withdrawal from the study because of TRAEs” value (70 patients) of the same compound?
**A.** no patient withdrawal

**Q.** And the “maximum toxic dosage (MTD)” value (QOD)?
**A.** 50 mg

**Q.** And the tolerability (median follow-up of 4.1 (1.0-21.2) cycles)?
**A.** well-tolerated in all dose cohorts other than the 60 mg cohort

**Q.** What about the “Alanine aminotransferase increased, Any grade” value [1] of the same compound?
**A.** 29 (29%) n (%)

**Q.** And the “Alanine aminotransferase increased, Grade 3-4” value [1]?
**A.** 2 (2.0%) n (%)

**Q.** What about the “Alanine aminotransferase increased, SAE” value [1] of the same compound?
**A.** 0 n (%)

**Q.** And the “Anaemia, Any grade” value [1]?
**A.** 10 (10%) n (%)

**Q.** And the “Anaemia, Grade 3-4” value [1]?
**A.** 9 (9.0%) n (%)

**Q.** And the “Anaemia, SAE” value [1]?
**A.** 2 (2.0%) n (%)

**Q.** And the “Aspartate aminotransferase inceased, Any grade” value [1]?
**A.** 31 (31%) n (%)

**Q.** And the “Aspartate aminotransferase inceased, Grade 3-4” value [1]?
**A.** 2 (2.0%) n (%)

**Q.** And the “Aspartate aminotransferase inceased, SAE” value [1]?
**A.** 0 n (%)

**Q.** And the “Blood bilirubin increased, Any grade” value [1]?
**A.** 28 (28%) n (%)

**Q.** What about the “Blood bilirubin increased, Grade 3-4” value [1] of the same compound?
**A.** 1 (1.0%) n (%)

**Q.** What about the “Blood bilirubin increased, SAE” value [1] of the same compound?
**A.** 0 n (%)

**Q.** And the “Blood creatine phosphokinase increased, Any grade” value [1]?
**A.** 19 (19%) n (%)

**Q.** What about the “Blood creatine phosphokinase increased, Grade 3-4” value [1] of the same compound?
**A.** 1 (1.0%) n (%)

**Q.** And the “Blood creatine phosphokinase increased, SAE” value [1]?
**A.** 0 n (%)

**Q.** What about the “Hypertriglyceridaemia, Any grade” value [1] of the same compound?
**A.** 51 (51%) n (%)

**Q.** And the “Hypertriglyceridaemia, Grade 3-4” value [1]?
**A.** 4 (4.0%) n (%)

**Q.** And the “Hypertriglyceridaemia, SAE” value [1]?
**A.** 0 n (%)

**Q.** What about the “Hypocalcaemia, Any grade” value [1] of the same compound?
**A.** 31 (31%) n (%)

**Q.** What about the “Hypocalcaemia, Grade 3-4” value [1] of the same compound?
**A.** 0 n (%)

**Q.** What about the “Hypocalcaemia, SAE” value [1] of the same compound?
**A.** 0 n (%)

**Q.** What about the “Leukopenia, Any grade” value [1] of the same compound?
**A.** 17 (17%) n (%)

**Q.** And the “Leukopenia, Grade 3-4” value [1]?
**A.** 15 (15%) n (%)

**Q.** And the “Neutropenia, Any grade” value [1]?
**A.** 2 (2.0%) n (%)

**Q.** And the “Neutropenia, Grade 3-4” value [1]?
**A.** 0 n (%)

**Q.** What about the “Neutropenia, SAE” value [1] of the same compound?
**A.** 0 n (%)

**Q.** And the “Proteinuria, Any grade” value [1]?
**A.** 11 (11%) n (%)

**Q.** And the “Proteinuria, Grade 3-4” value [1]?
**A.** 1 (1.0%) n (%)

**Q.** What about the “Proteinuria, SAE” value [1] of the same compound?
**A.** 0 n (%)

**Q.** And the “Skin hyperpigmentation, Any grade” value [1]?
**A.** 35 (35%) n (%)

**Q.** What about the “Skin hyperpigmentation, Grade 3-4” value [1] of the same compound?
**A.** 0 n (%)

**Q.** And the “Skin hyperpigmentation, SAE” value [1]?
**A.** 0 n (%)

**Q.** And the “Thrombocytopenia, Any grade” value [1]?
**A.** 46 (46%) n (%)

**Q.** What about the “Thrombocytopenia, Grade 3-4” value [1] of the same compound?
**A.** 45 (45%) n (%)

**Q.** What about the “Thrombocytopenia, SAE” value [1] of the same compound?
**A.** 5 (5.0%) n (%)

**Q.** What about the “leukocytosis, Any grade” value [1] of the same compound?
**A.** 9 (9.0%) n (%)

**Q.** And the “leukocytosis, Grade 3-4” value [1]?
**A.** 8 (8.0%) n (%)

**Q.** And the “leukocytosis, SAE” value [1]?
**A.** 0 n (%)

**Q.** And the “leukopenia, SAE” value [1]?
**A.** 0 n (%)
